Measurements: PubChem BioAssay AID1919007 (Molecular Pharmacology Branch, DTP, NCI, 2023)
“And” between values parts separate entries of the source, which are not always exact repeats. Equal values may be shown once.

Test system: A498 complex spheroids with HUVEC/MSC, growth
Assay: Anticancer human tumor A498 cell line growth inhibition [AhR];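 further: seven day exposure starting three days after spheroid seeding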;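 on viability, T/C: luminescence signal used as a surrogate for viable cells; luminescence viability scaled so 100% equals DMSO vehicle wells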
Conditions: for viability, T/C: stronger effect = lower value
Outline: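 Agents were dosed in half-log steps down from roughly clinical Cmax, or from 10 microM where Cmax was unknown, alone and with AhR antagonists. Read-out: percent test/control growth of tumor spheroids containing HUVEC and MSC stromal cells.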

[1] = curve of first compound, second compound 0.1 µM
[2] = curve of first compound, second compound 0.316 µM
[3] = curve of first compound, second compound 1 µM
[4] = curve of first compound, second compound 3.16 µM
[5] = curve of first compound, second compound 10 µM
[6] = second compound 0.1 µM, first compound 0.0316 µM
[7] = second compound 0.1 µM, first compound 0.1 µM
[8] = second compound 0.1 µM, first compound 0.316 µM
[9] = second compound 0.1 µM, first compound 1 µM
[10] = second compound 0.316 µM, first compound 0.0316 µM
[11] = second compound 0.316 µM, first compound 0.1 µM
[12] = second compound 0.316 µM, first compound 0.316 µM
[13] = second compound 0.316 µM, first compound 1 µM
[14] = second compound 1 µM, first compound 0.0316 µM
[15] = second compound 1 µM, first compound 0.1 µM
[16] = second compound 1 µM, first compound 0.316 µM
[17] = second compound 1 µM, first compound 1 µM
[18] = second compound 3.16 µM, first compound 0.0316 µM
[19] = second compound 3.16 µM, first compound 0.1 µM
[20] = second compound 3.16 µM, first compound 0.316 µM
[21] = second compound 3.16 µM, first compound 1 µM
[22] = second compound 10 µM, first compound 0.0316 µM
[23] = second compound 10 µM, first compound 0.1 µM
[24] = second compound 10 µM, first compound 0.316 µM
[25] = second compound 10 µM, first compound 1 µM

Nc1ncn(C2CC(O)C(CO)S2)c(=O)n1 (configuration not stated) + Cc1ccccc1N=Nc1ccc(NC(=O)c2ccnn2C)c(C)c1
IC50 [1]: > 300 nM
IC50 [2]: > 300 nM
IC50 [3]: > 300 nM
IC50 [4]: > 300 nM
IC50 [5]: > 300 nM
viability, T/C (second compound 0.1 µM, first compound 0.000949 µM): 93.5%
viability, T/C (second compound 0.1 µM, first compound 0.003 µM): 97.4%
viability, T/C (second compound 0.1 µM, first compound 0.00949 µM): 101%
viability, T/C (second compound 0.1 µM, first compound 0.03 µM): 89.8%
viability, T/C (second compound 0.1 µM, first compound 0.0949 µM): 89.9%
viability, T/C (second compound 0.1 µM, first compound 0.3 µM): 76.8%
viability, T/C (second compound 0.316 µM, first compound 0.000949 µM): 98.2%
viability, T/C (second compound 0.316 µM, first compound 0.003 µM): 101%
viability, T/C (second compound 0.316 µM, first compound 0.00949 µM): 93.3%
viability, T/C (second compound 0.316 µM, first compound 0.03 µM): 91.6%
viability, T/C (second compound 0.316 µM, first compound 0.0949 µM): 88.5%
viability, T/C (second compound 0.316 µM, first compound 0.3 µM): 78.1%
viability, T/C (second compound 1 µM, first compound 0.000949 µM): 92%
viability, T/C (second compound 1 µM, first compound 0.003 µM): 93.1%
viability, T/C (second compound 1 µM, first compound 0.00949 µM): 91.7%
viability, T/C (second compound 1 µM, first compound 0.03 µM): 89.2%
viability, T/C (second compound 1 µM, first compound 0.0949 µM): 79.6%
viability, T/C (second compound 1 µM, first compound 0.3 µM): 80.9%
viability, T/C (second compound 3.16 µM, first compound 0.000949 µM): 89.8%
viability, T/C (second compound 3.16 µM, first compound 0.003 µM): 94.2%
viability, T/C (second compound 3.16 µM, first compound 0.00949 µM): 97.4%
viability, T/C (second compound 3.16 µM, first compound 0.03 µM): 79.3%
viability, T/C (second compound 3.16 µM, first compound 0.0949 µM): 77.5%
viability, T/C (second compound 3.16 µM, first compound 0.3 µM): 71.3%
viability, T/C (second compound 10 µM, first compound 0.000949 µM): 88.2%
viability, T/C (second compound 10 µM, first compound 0.003 µM): 89%
viability, T/C (second compound 10 µM, first compound 0.00949 µM): 87.8%
viability, T/C (second compound 10 µM, first compound 0.03 µM): 89.1%
viability, T/C (second compound 10 µM, first compound 0.0949 µM): 80.8%
viability, T/C (second compound 10 µM, first compound 0.3 µM): 75.7%

Nc1ncn(C2CC(O)C(CO)O2)c(=O)n1 (configuration not stated) + CC(CO)NC(=O)c1cc(-c2ccc(Cl)cc2)nn(-c2cnn(C)c2)c1=O
IC50 [1]: > 1000 nM
IC50 [2]: > 1000 nM
IC50 [3]: > 1000 nM
IC50 [4]: > 1000 nM
IC50 [5]: > 1000 nM
viability, T/C (second compound 0.1 µM, first compound 0.00316 µM): 96.1%
viability, T/C (second compound 0.1 µM, first compound 0.01 µM): 91.9%
viability, T/C [6]: 88%
viability, T/C [7]: 76.1%
viability, T/C [8]: 77.8%
viability, T/C [9]: 66.7%
viability, T/C (second compound 0.316 µM, first compound 0.00316 µM): 83.7%
viability, T/C (second compound 0.316 µM, first compound 0.01 µM): 97.2%
viability, T/C [10]: 86.2%
viability, T/C [11]: 78.2%
viability, T/C [12]: 76%
viability, T/C [13]: 66.9%
viability, T/C (second compound 1 µM, first compound 0.00316 µM): 88.3%
viability, T/C (second compound 1 µM, first compound 0.01 µM): 87%
viability, T/C [14]: 88.4%
viability, T/C [15]: 75.1%
viability, T/C [16]: 75.4%
viability, T/C [17]: 67%
viability, T/C (second compound 3.16 µM, first compound 0.00316 µM): 79.7%
viability, T/C (second compound 3.16 µM, first compound 0.01 µM): 85.7%
viability, T/C [18]: 84%
viability, T/C [19]: 70.7%
viability, T/C [20]: 67.1%
viability, T/C [21]: 59.2%
viability, T/C (second compound 10 µM, first compound 0.00316 µM): 62%
viability, T/C (second compound 10 µM, first compound 0.01 µM): 67.1%
viability, T/C [22]: 67%
viability, T/C [23]: 55.8%
viability, T/C [24]: 52.8%
viability, T/C [25]: 53.6%

O=C(C=Cc1cccc(S(=O)(=O)Nc2ccccc2)c1)NO + Cc1cncc(-c2nc(NCCc3c[nH]c4ccccc34)c3ncn(C(C)C)c3n2)c1
IC50 [1]: 1260 nM
IC50 [2]: 1380 nM
IC50 [3]: 1120 nM
IC50 [4]: 119 nM
IC50 [5]: < 31.6 nM
viability, T/C [6]: 92.1%
viability, T/C [7]: 90.3%
viability, T/C [8]: 63.2%
viability, T/C [9]: 54.4%
viability, T/C (second compound 0.1 µM, first compound 3.16 µM): 37.4%
viability, T/C (second compound 0.1 µM, first compound 10 µM): 15.1%
viability, T/C [10]: 94.5%
viability, T/C [11]: 88.1%
viability, T/C [12]: 73.5%
viability, T/C [13]: 53.8%
viability, T/C (second compound 0.316 µM, first compound 3.16 µM): 36.7%
viability, T/C (second compound 0.316 µM, first compound 10 µM): 13.8%
viability, T/C [14]: 83.9%
viability, T/C [15]: 85%
viability, T/C [16]: 64.7%
viability, T/C [17]: 52.4%
viability, T/C (second compound 1 µM, first compound 3.16 µM): 33.5%
viability, T/C (second compound 1 µM, first compound 10 µM): 14.9%
viability, T/C [18]: 48.5%
viability, T/C [19]: 51.9%
viability, T/C [20]: 50%
viability, T/C [21]: 42.5%
viability, T/C (second compound 3.16 µM, first compound 3.16 µM): 31.2%
viability, T/C (second compound 3.16 µM, first compound 10 µM): 11.8%
viability, T/C [22]: 4.64%
viability, T/C [23]: 4.39%
viability, T/C [24]: 4.66%
viability, T/C [25]: 3.81%
viability, T/C (second compound 10 µM, first compound 3.16 µM): 2.39%
viability, T/C (second compound 10 µM, first compound 10 µM): 2.67%

CC1(C)CCC(CN2CCN(c3ccc(C(=O)NS(=O)(=O)c4ccc(NCC5CCOCC5)c([N+](=O)[O-])c4)c(Oc4cnc5[nH]ccc5c4)c3)CC2)=C(c2ccc(Cl)cc2)C1
viability, T/C (compound 0.0316 µM): 99.2% and 106% and 101%
viability, T/C (compound 0.1 µM): 115% and 103% and 98.6%
viability, T/C (compound 0.316 µM): 96.3% and 101% and 95.3%
viability, T/C (compound 1 µM): 86.8% and 94.5% and 92.4%
viability, T/C (compound 3.16 µM): 80.8% and 86% and 84.5%
viability, T/C (compound 10 µM): 28.3% and 56.8% and 25.5%
IC50 (curve of compound): 6010 nM and > 10000 nM and 6170 nM
